Test system: RA-specific antibodies (4 anti-CCP2-positive sera)
Assay: Indirect (inhibition) ELISA: cross-reactivity of analytes with RA-specific antibodies, immobilized CCP2 as capture antigen
Format: binding, human
Parameters: Cross-reactivity of antibodies with the named analyte: concentration or dose not given beside the values
Settings: for Cross-reactivity (%) of RA-specific antibody, modified α-amino acid: alkylation + acetylation: acetylated amino acid methyl ester of the amino acid named; for Cross-reactivity (%) of RA-specific antibody, modified α-amino acid: alkylation + acetylation / Cross-reactivity (%) of RA-specific antibody, modified α-amino acid: acetylation / Cross-reactivity (%) of RA-specific antibody, modified α-amino acid: alkylation: 0 = less than 1%; for Cross-reactivity (%) of RA-specific antibody, modified α-amino acid: acetylation: acetylated derivative of the amino acid named; for Cross-reactivity (%) of RA-specific antibody, modified α-amino acid: alkylation: methyl esterified (Me) derivative of the amino acid named; for Cross-reactivity (%) of RA-specific antibody, α-amino acid: unmodified α-amino acid, 0 = cross-reactivity less than 1%; for Inhibition of antibody binding to the immobilized CCP2: FIG. 1 and 2, analyte at 50 mM, 4 sera, result in words; for Cross-reactivity of antibodies with the named analyte: the analyte itself is named
Description: A complete set of 21 amino acids and their derivatives were used as analytes to determine if any analyte inhibited the action of the detector antibody in binding to the capture antigen. Determination was made by observation at the single AA level through a series of moving windows of different derivatization. Following this procedure ensures that no antigenic elements of the epitope are missed as long as the possible AA derivatives are available. The analysis began in the fluid phase, wherein initially, the detector antibody was incubated with each of the analytes. After overnight incubation at 4° C., 100 μl of analyte preadsorbed detector antibody per well were added into 96-well microplate which immobilized CCP2 on the surface, and was incubated for 1 hour at room temperature with shaking. […] The reaction was stopped by adding 100 μl of 0.5 M H2SO4 per well and the results were estimated at A450 nm.
The concept of indirect ELISA was based upon an inhibition test between an unknown amount of analyte and a known amount of immobilized antigen for a limited number of detector antibody binding-sites. If the contents of detector antibody and immobilized antigen are kept constant, the distribution of detector antibody between immobilized antigen bound detector antibody and analyte bound detector antibody is dependent upon the amount of sample analyte. The mass of immobilized antigen bound detector antibody is inversely proportional to the amount of analyte bound detector antibody.
As described in FIG. 1, Amino Acid Profiles for the Antigenic Determinant, ELISA was carried out with sera from Euro-diagnostica (serum 1) and from three patients (serum 2, 3, and 4) with RA to CCP2 positive at various concentrations of different amino acids. […] The horizontal line at 100% represents the control percent binding of the CCP2 to the antibody.
As described in FIG. 2, Acetylamino Acid Profiles for the Antigenic Determinant, ELISA was carried out with sera from Euro-diagnostica (serum 1) and from three patients (serum 2, 3, and 4) with RA to CCP2 positive at various concentrations of different acetylamino acids. […] The horizontal line at 100% represents the control percent binding of the CCP2 to the antibody.
As described in FIG. 3, Alkylamino Acid Profiles for the Antigenic Determinant, ELISA was carried out with sera from Euro-diagnostica (serum 1) and from three patients (serum 2, 3, and 4) with RA to CCP2 positive at various concentrations of different alkylamino acids. […] The horizontal line at 100% represents the control percent binding of the CCP2 to the antibody.
As described in FIG. 4, Acetylamino Acid Methyl Ester Profiles for the Antigenic Determinant, ELISA was carried out with sera from Euro-diagnostica (serum 1) and from three patients (serum 2, 3, and 4) with RA to CCP2 positive at various concentrations of different acetylamino acid methyl esters. […] The horizontal line at 100% represents the control percent binding of the CCP2 to the antibody.

N[C@@H](Cc1c[nH]cn1)C(=O)O [Histidine]
Cross-reactivity (%) of RA-specific antibody, modified α-amino acid: alkylation + acetylation: 0%
Cross-reactivity (%) of RA-specific antibody, modified α-amino acid: acetylation: 0%
Cross-reactivity (%) of RA-specific antibody, modified α-amino acid: alkylation: ^Me0%
Cross-reactivity (%) of RA-specific antibody, α-amino acid: 0%

N[C@@H](CS)C(=O)O [Cysteine]
Inhibition of antibody binding to the immobilized CCP2: limited capability to inhibit
Cross-reactivity (%) of RA-specific antibody, modified α-amino acid: alkylation + acetylation: 57%
Cross-reactivity (%) of RA-specific antibody, modified α-amino acid: acetylation: 48%
Cross-reactivity (%) of RA-specific antibody, modified α-amino acid: alkylation: ^Me50%
Cross-reactivity of antibodies with the named analyte: 0%
Cross-reactivity (%) of RA-specific antibody, α-amino acid: 0%

N[C@@H](Cc1ccccc1)C(=O)O [Phenylalanine]
Cross-reactivity (%) of RA-specific antibody, modified α-amino acid: alkylation + acetylation: 0%
Cross-reactivity (%) of RA-specific antibody, modified α-amino acid: acetylation: 0%
Cross-reactivity (%) of RA-specific antibody, modified α-amino acid: alkylation: ^Me0%
Cross-reactivity (%) of RA-specific antibody, α-amino acid: 0%

CC(C)[C@H](N)C(=O)O [Valanine]
Cross-reactivity (%) of RA-specific antibody, modified α-amino acid: alkylation + acetylation: 0%
Cross-reactivity (%) of RA-specific antibody, modified α-amino acid: acetylation: 0%
Cross-reactivity (%) of RA-specific antibody, modified α-amino acid: alkylation: ^Me0%
Cross-reactivity (%) of RA-specific antibody, α-amino acid: 0%

N[C@@H](Cc1c[nH]c2ccccc12)C(=O)O [Tryptophan]
Cross-reactivity (%) of RA-specific antibody, modified α-amino acid: alkylation + acetylation: 0%
Cross-reactivity (%) of RA-specific antibody, modified α-amino acid: acetylation: 0%
Cross-reactivity (%) of RA-specific antibody, modified α-amino acid: alkylation: ^Me0%
Cross-reactivity (%) of RA-specific antibody, α-amino acid: 0%

CC[C@H](C)[C@H](N)C(=O)O [Isoleucine]
Cross-reactivity (%) of RA-specific antibody, modified α-amino acid: alkylation + acetylation: 0%
Cross-reactivity (%) of RA-specific antibody, modified α-amino acid: acetylation: 0%
Cross-reactivity (%) of RA-specific antibody, modified α-amino acid: alkylation: ^Me0%
Cross-reactivity (%) of RA-specific antibody, α-amino acid: 0%

CC(=O)N[C@@H](CCCNC(N)=O)C(=O)O [acetyl-Cit]
Inhibition of antibody binding to the immobilized CCP2: strong inhibition
Cross-reactivity of antibodies with the named analyte: 74%

CSCCC(NC(C)=O)C(=O)O (stereo not drawn) [acetyl-Met]
Cross-reactivity of antibodies with the named analyte: 0%

CC(=O)N[C@@H](CO)C(=O)O [acetyl-Ser]
Cross-reactivity of antibodies with the named analyte: 0%

COC(=O)C(CCCNC(N)=O)NC(C)=O (stereo not drawn) [acetyl-Cit-Me]
Cross-reactivity of antibodies with the named analyte: 100%

N[C@@H](CO)C(=O)O [Serine]
Cross-reactivity (%) of RA-specific antibody, modified α-amino acid: alkylation + acetylation: 0%
Cross-reactivity (%) of RA-specific antibody, modified α-amino acid: acetylation: 0%
Cross-reactivity (%) of RA-specific antibody, modified α-amino acid: alkylation: ^Me0%
Cross-reactivity of antibodies with the named analyte: 0%
Cross-reactivity (%) of RA-specific antibody, α-amino acid: 0%

COC(=O)[C@H](CCSC)NC(C)=O [acetyl-Met-Me]
Cross-reactivity of antibodies with the named analyte: 0%

COC(=O)[C@@H](N)CCCN=C(N)N [Arg-Me]
Cross-reactivity of antibodies with the named analyte: 6%

CC(=O)N[C@@H](CS)C(=O)O [acetyl-Cys]
Inhibition of antibody binding to the immobilized CCP2: strong inhibition
Cross-reactivity of antibodies with the named analyte: 50%

COC(=O)[C@@H](N)CS [Cys-Me]
Cross-reactivity of antibodies with the named analyte: 48%

COC(=O)[C@H](CCCNC(=N)N)NC(C)=O [acetyl-Arg-Me]
Cross-reactivity of antibodies with the named analyte: 13%

COC(=O)C(N)CCSC (stereo not drawn) [Met-Me]
Cross-reactivity of antibodies with the named analyte: 0%

CCCCOC(=O)[C@@H](N)CCCNC(N)=O [Cit-Be]
Cross-reactivity of antibodies with the named analyte: 124%

NCC(=O)O [Glycine]
Cross-reactivity (%) of RA-specific antibody, modified α-amino acid: alkylation + acetylation: 0%
Cross-reactivity (%) of RA-specific antibody, modified α-amino acid: acetylation: 0%
Cross-reactivity (%) of RA-specific antibody, modified α-amino acid: alkylation: ^Me0%
Cross-reactivity (%) of RA-specific antibody, α-amino acid: 0%

N=C(N)NCCC[C@H](N)C(=O)O [Arginine]
Cross-reactivity (%) of RA-specific antibody, modified α-amino acid: alkylation + acetylation: 13%
Cross-reactivity (%) of RA-specific antibody, modified α-amino acid: acetylation: 6%
Cross-reactivity (%) of RA-specific antibody, modified α-amino acid: alkylation: ^Me5%
Cross-reactivity of antibodies with the named analyte: zero
Cross-reactivity (%) of RA-specific antibody, α-amino acid: 0%

COC(=O)C(N)CCCNC(N)=O (stereo not drawn) [Cit-Me]
Cross-reactivity of antibodies with the named analyte: 81%

CC(C)C[C@H](N)C(=O)O [Leucine]
Cross-reactivity (%) of RA-specific antibody, modified α-amino acid: alkylation + acetylation: 0%
Cross-reactivity (%) of RA-specific antibody, modified α-amino acid: acetylation: 0%
Cross-reactivity (%) of RA-specific antibody, modified α-amino acid: alkylation: ^Me0%
Cross-reactivity (%) of RA-specific antibody, α-amino acid: 0%

N[C@@H](CC(=O)O)C(=O)O [Aspartic acid]
Cross-reactivity (%) of RA-specific antibody, modified α-amino acid: alkylation + acetylation: 0%
Cross-reactivity (%) of RA-specific antibody, modified α-amino acid: acetylation: 0%
Cross-reactivity (%) of RA-specific antibody, modified α-amino acid: alkylation: ^Me0%
Cross-reactivity (%) of RA-specific antibody, α-amino acid: 0%

CSCC[C@H](N)C(=O)O [Methionine]
Cross-reactivity (%) of RA-specific antibody, modified α-amino acid: alkylation + acetylation: 0%
Cross-reactivity (%) of RA-specific antibody, modified α-amino acid: acetylation: 0%
Cross-reactivity (%) of RA-specific antibody, modified α-amino acid: alkylation: ^Me0%
Cross-reactivity of antibodies with the named analyte: 0%
Cross-reactivity (%) of RA-specific antibody, α-amino acid: 0%

NC(=O)C[C@H](N)C(=O)O [Asparagine]
Cross-reactivity (%) of RA-specific antibody, modified α-amino acid: alkylation + acetylation: 0%
Cross-reactivity (%) of RA-specific antibody, modified α-amino acid: acetylation: 0%
Cross-reactivity (%) of RA-specific antibody, modified α-amino acid: alkylation: ^Me0%
Cross-reactivity (%) of RA-specific antibody, α-amino acid: 0%

CC(=O)N[C@@H](CCCN=C(N)N)C(=O)O [acetyl-Arg]
Inhibition of antibody binding to the immobilized CCP2: limited inhibition
Cross-reactivity of antibodies with the named analyte: 5%

CCCOC(=O)C(N)CCCNC(N)=O (stereo not drawn) [Cit-Pe]
Cross-reactivity of antibodies with the named analyte: 115%

NCCCC[C@H](N)C(=O)O [Lysine]
Cross-reactivity (%) of RA-specific antibody, modified α-amino acid: alkylation + acetylation: 0%
Cross-reactivity (%) of RA-specific antibody, modified α-amino acid: acetylation: 0%
Cross-reactivity (%) of RA-specific antibody, modified α-amino acid: alkylation: ^Me0%
Cross-reactivity (%) of RA-specific antibody, α-amino acid: 0%

COC(=O)[C@@H](N)CO [Ser-Me]
Cross-reactivity of antibodies with the named analyte: 0%

C[C@@H](O)[C@H](N)C(=O)O [Threonine]
Cross-reactivity (%) of RA-specific antibody, modified α-amino acid: alkylation + acetylation: 0%
Cross-reactivity (%) of RA-specific antibody, modified α-amino acid: acetylation: 0%
Cross-reactivity (%) of RA-specific antibody, modified α-amino acid: alkylation: ^Me0%
Cross-reactivity (%) of RA-specific antibody, α-amino acid: 0%

CCOC(=O)C(N)CCCNC(N)=O (stereo not drawn) [Cit-Ee]
Cross-reactivity of antibodies with the named analyte: 72%

— patent publication US8323656B2, “Antigen determinant of rheumatoid arthritis-specific autoantibody and use thereof” (priority 2007, dated 2012)
